Columns and labels:
smooth muscle cell (SMC) = assay: SMC contraction and invasion in genipin-crosslinked collagen-chitosan-elastin (CCE) gel constructs; assay type: cell-based
Source text: The vascular media, a layer of the blood vessel wall containing smooth muscle cell (SMC), is often the target functional tissue in the construction of biomimetic vascular grafts. It has a major contribution to mechanical properties and biological functions of vessels including contraction and healing. The present inventors have studied the effects of crosslinking and biomolecule conditions in the development of mechanically strong and stable, biologically functional constructs for vascular media equivalents. To this end, genipin was used to crosslink collagen-chitosan-elastin (CCE) constructs, and the effects of genipin concentration on the mechanical properties and SMC activity of CCE gel constructs were examined.
To enhance biological activities of cells on the genipin-treated CCE constructs, soluble molecule factors were incorporated with structural constructs and their effects on SMC activities were evaluated. These conditions include heparin, platelet-derived […] growth factor (PDGF), high-concentrated fetal bovine serum (h-FBS), mixture of heparin and PDGF and mixture of h-FBS and PDGF. […] The ingrowth of SMC in the vascular media equivalent also promoted wound healing process of the construct scaffold by showing the closure of the puncture hole (FIG. 14).

SMC = SMC migration, in-growth and contraction in collagen-chitosan scaffolds; assay type: cell-based
Source text: In addition, collagen-chitosan scaffolds have been developed as a structural support for the formation of a vascular media equivalent. In particular, the effects of cross-linking and PDGF-BB (with or without heparin or serum) on biomechanical properties, SMC migration, SMC contraction, and wound healing have been evaluated (FIG. 12). […] For example, it enhanced the strength and modulus while inhibited SMC in-growth and contraction. With a low cross-linking condition, the molecule effects of PDGF-BB, a SMC attractant, were studied with or without serum or heparin.

Row | Compound | SMC contraction or invasion in the gels (smooth muscle cell (SMC); genipin at a concentration of 5 mM or above) | SMC contraction and invasion in the CCE gels (smooth muscle cell (SMC); genipin crosslinking) | SMC in-growth and contraction (SMC; collagen-chitosan scaffolds cross-linked using genipin) | PDGF-induced SMC invasion into the crosslinked constructs (smooth muscle cell (SMC)) | PDGF-induced cell migration and contraction (SMC; low cross-linking condition, PDGF-BB with or without serum or heparin)
1 | COC(=O)C1=CO[C@@H](O)[C@@H]2C(CO)=CC[C@H]12 [genipin] | No SMC contraction or invasion was observed | significantly inhibited | inhibited |  | 
2 | heparin |  |  |  | inhibitory effects | inhibited

Source: patent publication US20100221304A1, “Bionanocomposite Materials and Methods For Producing and Using the Same” (The Regents of the University of Colorado, a body corporate, priority 2009, published 2010)
